# Results as given in US12070463B2, “Compositions and methods for the treatment of seizure caused by brain tumor” (Board Of Supervisors Of Louisiana State University And …, priority 2015, dated 2024).
# “Also recorded” adds a separate entry of the source.
# Columns and labels:
# microglia = settings: in vivo; cited from earlier work
# [1] = system: dysmorphic filopodia-like spines; assay: Dysmorphic filopodia-like dendritic spines in epileptogenesis, Golgi staining; format: in vivo, mice; settings: 7 days after SE
# Description: Cyto-architecture hippocampal neurons, dendrites and dendritic spines was evaluated using rapid Golgi staining and the DIOLISTIC labeling approach, as shown in FIG. 12A. Then dendrites and dendritic spines from pyramidal cells were reconstructed, analyzed, and visualized in a 30 shape of neurons from the ipsi and contralateral hippocampal region using light and confocal microscopy, digitally-traced, mediated computational analysis.
# [2] = Seizure susceptibility and survival after status epilepticus (SE); format: in vivo, BALB/c (nu/nu) mice; settings: 60 mg/kg i.p. daily for 5 days, 24 h after SE
# Description: BABL/c (nu/nu) mice received compound LAU-0901 (60 mg/kg; i.p.) or saline daily for 5 days 24 h after SE.
# GBM cells were implanted into PAF-r deficient or wild type mice. Lyn kinase inhibitor (Dasatinib; 0.01 mL/g) (Luo et al., 2000) or vehicle (propylene glycol/water) was administered intraperitoneally at 14 d after GBM implantation and continues for 14 d. Alternatively, BALB/c, (nu/nu) mice received LAU-0901 (60 mg/kg; i.p.) or saline daily for 5 days (n=4-5 per group) 24 h after SE. Weight, locomotion, survival rate, behavior, in vivo tumor growth, and GBM cells were analyzed.
# [3] = Pentylenetetrazol (PTZ) test, locomotor seizures by modified Racine's score; format: in vivo, mice; settings: single dose 60 mg/kg i.p. 2 h before PTZ 40 mg/kg i.p.; vs vehicle
# Description: A single dose (i.p.) of a LAU compound 60 mg/kg; ip.) or vehicle (0.1 mL of sterile 0.9% sodium chloride) was administered 2 h before a single dose of pentylenetetrazol (PTZ) (40 mg/kg; i.p.). Data represent average and bars±S.E.M. t-test between vehicle and for each LAU compound: LAU0901 p<0.031; others: p<0.0001 at 60 mins. Maximum seizure levels and the percentage reduction from vehicle after PTZ injection are shown. Locomotor seizures were video recorded and quantified according to a modified Racine's score (Stage: 0 normal locomotor activity. Stage 1, behavioral arrest, Stage 2: head nodding; stage 3, facial movements and contralateral forelimb dorms).
# Pentylenetetrazol test: The systemic administration of pentylenetetrazol (PTZ) in rodents, an accepted model to test the potential anti-convulsive effect (Loscher, 2011) was used to evaluate seizure susceptibility in mice with GBM cell implantation. It has been seen that systemic administration of PTZ at 35 mg/kg is useful as a sub-convulsive dose to evaluate seizures after brain damage. Animals were placed in individual Plexiglas cages (28×28×37.5 cm) and then a single dose of PTZ (Sigma, St. Louis, MO) at 35 mg/kg were administered intraperitoneally (i.p.) to each animal. Locomotor seizures were quantified according to a modified Racine's Score classified as previously described (Musto et al., 2009, 2011).
# Lyn kinase = assay: Phospho-Lyn in hippocampal synapsis after SE, immunohistology; format: in vivo, mice; settings: hippocampus
# MIP-2 [4] = assay: Hippocampal MIP-2 after neuroinflammation (LPS / post status epilepticus), bead-based immunodetection; format: in vivo, mice; settings: 60 mg/kg/daily for 5 days i.p.
# Description: MIP-2 was measured using bead-based immunodetection. Values are means±SD: *P<0.05 (two-way repeated-measures ANOVA).
# MIP-2 was measured using bead-based immunodetection respectively. Diamonds: interval of confidence; diamond internal horizontal line; group mean; bar lines; standard deviation. Data represent average and bars±S.E.M; n=3 of each group. ANOVA one way, *=p<0.05.
# Pro-inflammatory molecular analysis: LC-MS/MS-based mediator lipidomic analysis will be evaluated as described previously (Musto et al., 2011, Musto and Samii, 2011), chemokine analysis was performed using commercial enzyme-linked immune-absorbent assay (Rodent MAPs Myira RBM, USA), and matrix metalloproteinase (MMP) activity were investigated by gelatin zymography assay (Ramaswamy et al., 2014).
# U87MG cells = assay: Hippocampal U87MG GBM xenograft, tumor growth by in vivo bioluminescent imaging; design: species or system BALB/c (nu/nu) mice
# Description: FIGS. 3A-3C illustrate that a PAF-r antagonist reduces GBM tumor size. U87MG cells were implanted in the right dorsal CA3 hippocampal region of BALB/c (nu/nu) mice. Intracranial tumor growth was quantified using Jo vivo bioluminescent imaging on days 10 and 25. Saline (vehicle) or LAU-0901 (60 mg/kg/day; i.p., n=6 in each group) was administered daily from day 10, during 5 days.
# Experimental Design and Methods: PAF-r deficient and wild type mice and athymic nude mice, 6 to 8 weeks of age (Harlan Laboratories) mice were used. The xerograph GBM mouse model is representative of this tumor, which has a narrow survival window. These cells form a massive and homogenous mass from tumor-initiating cells, are localized, and invade neuronal tissue. This model is a predictor of therapeutic responses in human glioblastoma patients. U87MG cells (FIGS. 2A-3C) with a luciferase reporter gene were injected (5×10^5 cells in […] serum-free DMEM) into the right dorsal CA3 hippocampal region (coordinates: 2.5 mm lateral, 1.7 mm posterior to the bregma, and 1.5 depth) of mice (6-8 wks of age) (Marrero et al., 2014).
# In vivo imaging analysis: Intracranial tumor growth was quantified by bioluminescent imaging using an in vivo imaging system and procedures as described by Marrero et al., 2014, incorporated herein by reference in its entirety.
# MIP-2 [5] = assay: MIP-2 in mice with GBM; format: in vivo; settings: compared with vehicle
Compound,microglia activation (microglia),average spine length for dysmorphic filopodia-like spines [1],seizure severity [2],neuronal hyper-excitability (locomotor seizures after PTZ) [3],puncta phospho-Lyn and co-localization with pre- and post-synaptic markers (Lyn kinase),"hippocampal levels of MIP-2 (MIP-2 [4]; LPS one week after status epilepticus, vs saline (FIG. 4))","hippocampal levels of MIP-2 (MIP-2 [4]; LPS or one week after status epilepticus (PSE), vs vehicle (FIG. 20), 60 mg/kg)","tumor size (U87MG cells; 60 mg/kg/day i.p. for 5 days from day 10, representative images, 10 week-survival period, vs saline)","tumor size diminished compared to saline-treated group (U87MG cells; day 25, 60 mg/kg/day i.p. for 5 days from day 10)","body weight (U87MG cells; weeks 8 and 10, compared to saline group)",increases of MIP-2 (MIP-2 [5])
"2,4,6-trimethyl-1,4-dihydro-pyridine-3,5-dicarboxylic acid 5-[2-(3,4-dichlorophenyl) sulfanethyl ester 3-[1,3-di-(4-morpholinyl)-2-propyl-1-ester [LAU-0901]",reduces microglia activation,increased in the vehicle-treated compared to the LAU-0901-treated group,reduced seizure severity,counteract neuronal hyper-excitability,low puncta phospho-Lyn,reduced,limited; also recorded: reduces,dramatically reduced,80%,increased,
CC(C)Cc1ccc([C@@H](C)C(=O)NS(C)(=O)=O)cc1 [repertaxin],,,,,,,,,,,higher in those mice treated with vehicle
